Test results as given in ChEMBL document CHEMBL1201862, “PubChem BioAssay data set” (2004).
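In this assay, cells in 96-well plates receive the compound at five concentrations for 48 hours. Endpoints are linearly interpolated between the surrounding concentrations. Here, GI50 denotes the concentration required for 50% inhibition of growth.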 The source made the active and inactive calls. Cut-off read from the data, not from the text of the source: active = GI50 up to about 1.1 µM and inactive = higher.

Experiments:
Assay in all cases: NCI tumour cell line growth inhibition, 48 h
[1] = tested on: SNB-75
[2] = tested on: M14
[3] = tested on: NCI/ADR-RES
[4] = tested on: A549
[5] = tested on: HCT-116
[6] = tested on: NCI-H23
[7] = tested on: ACHN
[8] = tested on: HCC 2998
[9] = tested on: SK-MEL-28
[10] = tested on: MOLT-4
[11] = tested on: OVCAR-3
[12] = tested on: HOP-92
[13] = tested on: T47D
[14] = tested on: CAKI-1
[15] = tested on: RXF 393
[16] = tested on: MDA-MB-231
[17] = tested on: PC-3
[18] = tested on: SW-620
[19] = tested on: UACC-257
[20] = tested on: MDA-MB-435

In the case of CC(C)(C)OC(=O)NCCC1CN(C(=O)c2ccccc2)c2ccccc21 (stereo not given), the GI50 [1] is reported as 28.7 µM (inactive), the GI50 [2] is reported as 16.7 µM (inactive) and the GI50 [3] is reported as 22.1 µM (inactive). For the same compound, the GI50 [4] was 25.3 µM (inactive), the GI50 [5] was 17.8 µM (inactive) and the GI50 [6] was 26.3 µM (inactive). The GI50 [7] was 32.7 µM (inactive), the GI50 [8] was 73.1 µM (inactive) and the GI50 [9] was 32.7 µM (inactive). The GI50 [10] was 22.1 µM (inactive), the GI50 [11] was 15.9 µM (inactive) and the GI50 [12] was 26.5 µM (inactive). For the same compound, the GI50 [13] was 25.2 µM (inactive), the GI50 [14] was 36 µM (inactive) and the GI50 [15] was 28 µM (inactive). For the same compound, the GI50 [16] was 40.1 µM (inactive), the GI50 [17] was 31.8 µM (inactive) and the GI50 [18] was 34.2 µM (inactive). The GI50 [19] was 26.9 µM (inactive) and the GI50 [20] was 27.6 µM (inactive).

With N#Cc1c(Cl)c2cc([N+](=O)[O-])ccc2n2c1nc1ccccc12 the GI50 [1] was 8.81 µM (inactive), the GI50 [2] was 1.99 µM (inactive) and the GI50 [3] was 5.07 µM (inactive). For the same compound, the GI50 [4] was 35.8 µM (inactive), the GI50 [5] was 3.17 µM (inactive) and the GI50 [6] was 9.98 µM (inactive). The GI50 [7] was 4.29 µM (inactive), the GI50 [8] was 7.53 µM (inactive) and the GI50 [9] was 6.87 µM (inactive). For the same compound, the GI50 [10] was 0.8 µM (active), the GI50 [11] was 6.76 µM (inactive) and the GI50 [12] was 2.77 µM (inactive). The GI50 [13] was 1.79 µM (inactive), the GI50 [14] was 2.14 µM (inactive) and the GI50 [15] was 2.38 µM (inactive). For the same compound, the GI50 [16] was 0.492 µM (active), the GI50 [17] was 5.46 µM (inactive) and the GI50 [18] was 2.26 µM (inactive). For the same compound, the GI50 [19] was 20.6 µM (inactive) and the GI50 [20] was 2.35 µM (inactive).

With CC(=O)CCCCn1c(=O)c2c(nc(Br)n2C)n(C)c1=O the GI50 [1] was > 100 µM (inactive), the GI50 [2] was > 100 µM (inactive) and the GI50 [3] was > 100 µM (inactive). The GI50 [4] was > 100 µM (inactive), the GI50 [5] was > 100 µM (inactive) and the GI50 [6] was > 100 µM (inactive). The GI50 [7] was > 100 µM (inactive), the GI50 [8] was 95.3 µM (inactive) and the GI50 [9] was > 100 µM (inactive). The GI50 [10] was > 100 µM (inactive), the GI50 [11] was > 100 µM (inactive) and the GI50 [12] was 11.7 µM (inactive). The GI50 [13] was > 100 µM (inactive), the GI50 [14] was 1.82 µM (inactive) and the GI50 [15] was > 100 µM (inactive). The GI50 [16] was > 100 µM (inactive), the GI50 [17] was > 100 µM (inactive) and the GI50 [18] was > 100 µM (inactive). The GI50 [19] was > 100 µM (inactive) and the GI50 [20] was > 100 µM (inactive).

For COc1c(O)ccc(C2=Cc3ccc(O)cc3OC2)c1OC, the GI50 [1] was 14.9 µM (inactive), the GI50 [2] was 21 µM (inactive) and the GI50 [3] was 14.5 µM (inactive). For the same compound, the GI50 [4] was 24.8 µM (inactive), the GI50 [5] was 24.3 µM (inactive) and the GI50 [6] was 22.3 µM (inactive). For the same compound, the GI50 [7] was 6.56 µM (inactive), the GI50 [8] was 21 µM (inactive) and the GI50 [9] was 34.3 µM (inactive). For the same compound, the GI50 [10] was 6.82 µM (inactive), the GI50 [11] was 14.9 µM (inactive) and the GI50 [12] was 24 µM (inactive). For the same compound, the GI50 [13] was 25.6 µM (inactive), the GI50 [14] was 8.81 µM (inactive) and the GI50 [15] was 18.7 µM (inactive). For the same compound, the GI50 [16] was 20.7 µM (inactive), the GI50 [17] was 18.6 µM (inactive) and the GI50 [18] was 26.7 µM (inactive). For the same compound, the GI50 [19] was 30.3 µM (inactive) and the GI50 [20] was 7.64 µM (inactive).

For OC(c1cc(-c2ccccc2)nc2c1ccc1ccccc12)C1CCCCN1 (stereo not given), the GI50 [1] was 1.98 µM (inactive), the GI50 [2] was 1.73 µM (inactive) and the GI50 [3] was 2.1 µM (inactive). For the same compound, the GI50 [4] was 1.85 µM (inactive), the GI50 [5] was 1.63 µM (inactive) and the GI50 [6] was 1.95 µM (inactive). For the same compound, the GI50 [7] was 1.83 µM (inactive), the GI50 [8] was 0.59 µM (active) and the GI50 [9] was 1.81 µM (inactive). The GI50 [10] was 2.18 µM (inactive), the GI50 [11] was 1.84 µM (inactive) and the GI50 [12] was 1.62 µM (inactive). The GI50 [13] was 1.93 µM (inactive), the GI50 [14] was 1.91 µM (inactive) and the GI50 [15] was 1.81 µM (inactive). The GI50 [16] was 1.79 µM (inactive), the GI50 [17] was 1.71 µM (inactive) and the GI50 [18] was 1.78 µM (inactive). The GI50 [19] was 1.82 µM (inactive) and the GI50 [20] was 1.83 µM (inactive).

In the case of CO/C(N)=C(C#N)/N=C/c1cccs1, the GI50 [1] is reported as 73.5 µM (inactive), the GI50 [2] is reported as 41.2 µM (inactive) and the GI50 [3] is reported as 98.2 µM (inactive). For the same compound, the GI50 [4] was > 100 µM (inactive), the GI50 [5] was 42.2 µM (inactive) and the GI50 [6] was > 100 µM (inactive). The GI50 [7] was > 100 µM (inactive), the GI50 [8] was > 100 µM (inactive) and the GI50 [9] was 45.4 µM (inactive). The GI50 [10] was 62.8 µM (inactive), the GI50 [11] was 49.8 µM (inactive) and the GI50 [12] was > 100 µM (inactive). For the same compound, the GI50 [13] was 76.6 µM (inactive), the GI50 [14] was 24.3 µM (inactive) and the GI50 [15] was > 100 µM (inactive). The GI50 [16] was > 100 µM (inactive), the GI50 [17] was > 100 µM (inactive) and the GI50 [18] was 68.1 µM (inactive). For the same compound, the GI50 [19] was 32.5 µM (inactive) and the GI50 [20] was 25.8 µM (inactive).

For Nc1nc(N)c2ncn(Cc3c(Cl)cccc3Cl)c2n1, the GI50 [1] was 1.6 µM (inactive), the GI50 [2] was > 100 µM (inactive) and the GI50 [3] was 50.5 µM (inactive). The GI50 [4] was > 100 µM (inactive), the GI50 [5] was > 100 µM (inactive) and the GI50 [6] was > 100 µM (inactive). For the same compound, the GI50 [7] was > 100 µM (inactive), the GI50 [8] was > 100 µM (inactive) and the GI50 [9] was > 100 µM (inactive). The GI50 [10] was > 100 µM (inactive), the GI50 [11] was > 100 µM (inactive) and the GI50 [12] was > 100 µM (inactive). For the same compound, the GI50 [13] was > 100 µM (inactive), the GI50 [14] was > 100 µM (inactive) and the GI50 [15] was > 100 µM (inactive). The GI50 [16] was > 100 µM (inactive), the GI50 [17] was > 100 µM (inactive) and the GI50 [18] was > 100 µM (inactive). For the same compound, the GI50 [19] was > 100 µM (inactive) and the GI50 [20] was > 100 µM (inactive).

COC(=O)C1=C(C)NC(C)=C(C(=O)OC)C1c1ccc(N=O)cc1 was tested, and the GI50 [1] was 13.4 µM (inactive), the GI50 [2] was 11.2 µM (inactive) and the GI50 [3] was 20.8 µM (inactive). The GI50 [4] was 24.5 µM (inactive), the GI50 [5] was 6.12 µM (inactive) and the GI50 [6] was 16.2 µM (inactive). For the same compound, the GI50 [7] was 13.8 µM (inactive), the GI50 [8] was 16.9 µM (inactive) and the GI50 [9] was 17.1 µM (inactive). The GI50 [10] was 3.33 µM (inactive), the GI50 [11] was 13.6 µM (inactive) and the GI50 [12] was 2.54 µM (inactive). The GI50 [13] was 6.62 µM (inactive), the GI50 [14] was 8.3 µM (inactive) and the GI50 [15] was 8.22 µM (inactive). The GI50 [16] was 11.4 µM (inactive), the GI50 [17] was 15.8 µM (inactive) and the GI50 [18] was 3.61 µM (inactive). For the same compound, the GI50 [19] was 8.91 µM (inactive) and the GI50 [20] was 16.2 µM (inactive).
